From US10758534B2 (Vertex Pharmaceuticals Incorporated, priority 2014, dated 2020) come the findings set out here.

Molecules are shown by their SMILES.

The target in this assay is T1, F508del (Homo sapiens, UniProt P13569, DEL508-508).
T1 construct: expressed in transfected cells
T1 sequence (P13569 with tags, fused parts or gaps DEL508-508): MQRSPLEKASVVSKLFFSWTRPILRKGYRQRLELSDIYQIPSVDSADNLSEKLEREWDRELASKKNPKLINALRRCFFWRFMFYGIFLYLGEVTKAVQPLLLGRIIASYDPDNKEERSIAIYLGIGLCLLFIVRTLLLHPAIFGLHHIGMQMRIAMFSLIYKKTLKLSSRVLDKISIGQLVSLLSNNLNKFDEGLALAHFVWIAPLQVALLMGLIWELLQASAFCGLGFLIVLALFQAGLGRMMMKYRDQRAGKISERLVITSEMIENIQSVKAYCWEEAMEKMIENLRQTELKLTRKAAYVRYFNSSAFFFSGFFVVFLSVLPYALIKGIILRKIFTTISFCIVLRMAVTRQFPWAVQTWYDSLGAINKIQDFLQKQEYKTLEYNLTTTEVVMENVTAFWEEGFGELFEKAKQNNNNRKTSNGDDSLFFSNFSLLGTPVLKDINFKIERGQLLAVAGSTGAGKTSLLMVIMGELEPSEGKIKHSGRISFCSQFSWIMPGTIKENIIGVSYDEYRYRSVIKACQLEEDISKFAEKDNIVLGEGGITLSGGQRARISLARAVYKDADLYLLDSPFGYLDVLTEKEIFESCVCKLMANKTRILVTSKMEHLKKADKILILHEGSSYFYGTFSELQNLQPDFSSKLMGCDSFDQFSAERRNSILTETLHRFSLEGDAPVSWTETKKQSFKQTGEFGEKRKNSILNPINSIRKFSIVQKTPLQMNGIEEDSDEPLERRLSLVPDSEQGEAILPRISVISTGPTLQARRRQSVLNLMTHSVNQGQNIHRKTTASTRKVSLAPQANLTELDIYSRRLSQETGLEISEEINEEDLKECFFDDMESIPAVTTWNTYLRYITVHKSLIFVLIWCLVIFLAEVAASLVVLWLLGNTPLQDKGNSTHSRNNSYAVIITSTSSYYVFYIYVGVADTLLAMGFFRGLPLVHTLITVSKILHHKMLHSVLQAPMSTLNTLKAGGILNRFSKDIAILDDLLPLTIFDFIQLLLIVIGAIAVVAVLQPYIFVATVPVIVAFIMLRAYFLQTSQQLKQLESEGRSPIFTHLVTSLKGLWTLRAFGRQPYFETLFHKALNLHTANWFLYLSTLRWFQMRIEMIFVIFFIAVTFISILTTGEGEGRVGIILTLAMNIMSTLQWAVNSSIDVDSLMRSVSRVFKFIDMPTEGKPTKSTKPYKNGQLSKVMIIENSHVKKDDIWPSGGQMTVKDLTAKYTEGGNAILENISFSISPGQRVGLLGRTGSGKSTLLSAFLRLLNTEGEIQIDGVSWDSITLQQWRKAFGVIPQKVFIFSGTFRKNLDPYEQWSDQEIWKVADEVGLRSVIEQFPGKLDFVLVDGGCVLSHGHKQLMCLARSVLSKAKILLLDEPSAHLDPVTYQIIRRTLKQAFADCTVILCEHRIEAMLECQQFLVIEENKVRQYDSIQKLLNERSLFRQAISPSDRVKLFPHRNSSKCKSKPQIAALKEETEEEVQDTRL
The assay is described as follows: Protocol 1: membrane potential optical assay (FLIPR III, voltage sensing dye), identification of potentiator compounds. The assay is classed as cell-based. Particulars: Table 3, compounds of Table 1. Put shortly:
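NIH3T3 F508del cells, 27° C × 24 hrs; compound/DMSO pretreat → redistribution dye load → single forskolin addition with Cl⁻ gradient (gluconate-substituted bath, HEPES pH 7.4). FLIPR III membrane-potential fluorescence read.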
Take `Cc1cc(C)c(Oc2nc3c(cc2C(=O)NS(=O)(=O)c2ccc[nH]c2=O)CCC(C)(C)C3)c(C)c1` [Compound 1199, 7,7-dimethyl-N-[(2-oxo-1H-pyridin-3-yl)sulfonyl]-2-(2,4,6-trimethylphenoxy)-6,8-dihydro-5H-quinoline-3-carboxamide]: the EC30 entry is “++ (“++” means between 3 uM and 10 uM)”.

Take `Cc1cc(C)c(Oc2nc(-c3cccc(CN)c3)ccc2C(=O)NS(=O)(=O)c2cccc(N)n2)c(C)c1` [Compound 801, 6-[3-(aminomethyl)phenyl]-N-[(6-amino-2-pyridyl)sulfonyl]-2-(2,4,6-trimethylphenoxy)pyridine-3-carboxamide]: the EC30 entry is “+ (“+” means greater than 10 uM)”.

On to `CC1CN(c2nc(C(C)(C)C)c(C3=CC(C)(C)OC(C)(C)C3)cc2C(=O)NS(=O)(=O)c2cccc(N)n2)C(C)(C)C1` (stereo not drawn) [Compound 1647, N-[(6-amino-2-pyridyl)sulfonyl]-6-tert-butyl-5-(2,2,6,6-tetramethyl-3H-pyran-4-yl)-2-(2,2,4-trimethylpyrrolidin-1-yl)pyridine-3-carboxamide], for which the EC30 entry is on record as “+++ (“+++” means <3 uM)”.

Turning to `CC(C)Oc1ccc(-c2ccc(C(=O)NS(=O)(=O)c3cccnc3N)c(N3C[C@@H](C)CC3(C)C)n2)cc1` [Compound 1903, N-[(2-amino-3-pyridyl)sulfonyl]-6-(4-isopropoxyphenyl)-2-[(4S)-2,2,4-trimethylpyrrolidin-1-yl]pyridine-3-carboxamide], the EC30 result is recorded as “+++ (“+++” means <3 uM)”.

`CC(C)COc1cc(F)cc(-c2ccc(C(=O)NS(=O)(=O)c3cccc(N)n3)c(C3=C[C@H](C)CC3(C)C)n2)c1` [Compound 1961]: the EC30 result is “+++ (“+++” means <3 uM)”.

For `CCOc1cc(-c2ccc(C(=O)NS(=O)(=O)c3cccc(N)n3)c(Oc3c(C)cc(C)cc3C)n2)ccc1OC` [Compound 860, N-[(6-amino-2-pyridyl)sulfonyl]-6-(3-ethoxy-4-methoxy-phenyl)-2-(2,4,6-trimethylphenoxy)pyridine-3-carboxamide], the EC30 result is “++ (“++” means between 3 uM and 10 uM)”.

For the compound `Cc1cc(C)c(Oc2nc(N3CCCC3C)c(C)cc2C(=O)NS(=O)(=O)c2cccc(N)n2)c(C)c1` (stereo not drawn) [Compound 1516, N-[(6-amino-2-pyridyl)sulfonyl]-5-methyl-6-(2-methylpyrrolidin-1-yl)-2-(2,4,6-trimethylphenoxy)pyridine-3-carboxamide], the EC30 entry was “+++ (“+++” means <3 uM)”.

In the case of `COc1ncc(-c2ccc(C(=O)NS(=O)(=O)c3cc[nH]n3)c(Oc3c(C)cc(C)cc3C)n2)cc1C` [Compound 1044, 6-(6-methoxy-5-methyl-3-pyridyl)-N-(1H-pyrazol-3-ylsulfonyl)-2-(2,4,6-trimethylphenoxy)pyridine-3-carboxamide], the EC30 result is on record as “+++ (“+++” means <3 uM)”.

Regarding `C[C@@H]1CN(c2nc(-c3ccc(OC(F)(F)F)cc3)ccc2C(=O)NS(=O)(=O)c2cccc(N)n2)C(C)(C)C1` [Compound 1785, N-[(6-amino-2-pyridyl)sulfonyl]-6-[4-(trifluoromethoxy)phenyl]-2-[(4S)-2,2,4-trimethylpyrrolidin-1-yl]pyridine-3-carboxamide], the EC30 entry is “+++ (“+++” means <3 uM)”.

Take `Cc1cc(C)c(Oc2nc(-c3ccc(CN(C)C)cc3)ccc2C(=O)NS(=O)(=O)c2cccc(N)n2)c(C)c1` [Compound 962, N-[(6-amino-2-pyridyl)sulfonyl]-6-[4-(dimethylaminomethyl)phenyl]-2-(2,4,6-trimethylphenoxy)pyridine-3-carboxamide]: the EC30 entry was “++ (“++” means between 3 uM and 10 uM)”.

For `CC(C)Oc1cc(-c2ccc(C(=O)NS(=O)(=O)c3cccc(N)n3)c(N3C[C@@H](C)CC3(C)C)n2)cc(C(F)(F)F)c1` [Compound 1674, N-[(6-amino-2-pyridyl)sulfonyl]-6-[3-isopropoxy-5-(trifluoromethyl)phenyl]-2-[(4S)-2,2,4-trimethylpyrrolidin-1-yl]pyridine-3-carboxamide], the EC30 entry is recorded as “+++ (“+++” means <3 uM)”.

For the compound `CC(C)CNc1ccc(-c2ccc(C(=O)NS(=O)(=O)c3cccc(N)n3)c(N3[C@H](C)CC[C@@H]3C)n2)cn1` [Compound 1398, N-[(6-amino-2-pyridyl)sulfonyl]-2-[(2S,5R)-2,5-dimethylpyrrolidin-1-yl]-6-[6-(isobutylamino)-3-pyridyl]pyridine-3-carboxamide], the EC30 entry was “++ (“++” means between 3 uM and 10 uM)”.

With `CCOc1cccc2c1CN(Cc1c(C)cc(C)cc1C)C2(C)C(=O)NS(=O)(=O)c1cncs1` (stereo not drawn) [Compound 1606, 4-ethoxy-1-methyl-N-thiazol-5-ylsulfonyl-2-[(2,4,6-trimethylphenyl)methyl]isoindoline-1-carboxamide], the EC30 result was “+++ (“+++” means <3 uM)”.

`CCOc1ccc(C)cc1-c1ccc(C(=O)NS(=O)(=O)c2cccnc2N)c(N2C[C@@H](C)CC2(C)C)n1` [Compound 1964, N-[(2-amino-3-pyridyl)sulfonyl]-6-(2-ethoxy-5-methyl-phenyl)-2-[(4S)-2,2,4-trimethylpyrrolidin-1-yl]pyridine-3-carboxamide]: the EC30 result is reported as “+++ (“+++” means <3 uM)”.

Regarding `CC(c1ccccc1)n1nc(C(C)(C)C)cc1C(=O)NS(=O)(=O)c1cccc(N)c1` (stereo not drawn) [Compound 799, N-(3-aminophenyl)sulfonyl-5-ter-butyl-2-(1-phenylethyl)pyrazole-3-carboxamide], the EC30 entry was “+ (“+” means greater than 10 uM)”.

Turning to `Cc1cc(C)c(Oc2nc(-c3cc(F)cc(OCC(C)C)c3)ccc2C(=O)NS(=O)(=O)c2cccc(CN)n2)c(C)c1` [Compound 871, N-[[6-(aminomethyl)-2-pyridyl]sulfonyl]-6-(3-fluoro-5-isobutoxy-phenyl)-2-(2,4,6-trimethylphenoxy)pyridine-3-carboxamide], the EC30 result is on record as “+++ (“+++” means <3 uM)”.

Consider `Cc1ccc(-c2ccc(C(=O)NS(=O)(=O)c3ccc[nH]c3=O)c(N3C[C@@H](C)CC3(C)C)n2)c2ccccc12` [Compound 1811, 6-(4-methyl-1-naphthyl)-N-[(2-oxo-1H-pyridin-3-yl)sulfonyl]-2-[(4S)-2,2,4-trimethylpyrrolidin-1-yl]pyridine-3-carboxamide], for which the EC30 entry is given as “+++ (“+++” means <3 uM)”.

Turning to `CC1CN(c2ncccc2C(=O)NS(=O)(=O)c2cccc(NC3CCC(C(C)(C)C)CC3)n2)C(C)(C)C1` (stereo not drawn) [Compound 1971, N—[[6-[(4-tert-butylcyclohexyl)amino]-2-pyridyl]sulfonyl]-2-(2,2,4-trimethylpyrrolidin-1-yl)pyridine-3-carboxamide], the EC30 result is on record as “+++ (“+++” means <3 uM)”.

As for `CC1CN(c2ncccc2C(=O)NS(=O)(=O)c2cccc(N3CCN(C4CCCC4)CC3)n2)C(C)(C)C1` (stereo not drawn) [Compound 1733, N—[[6-(4-cyclopentylpiperazin-1-yl)-2-pyridyl]sulfonyl]-2-(2,2,4-trimethylpyrrolidin-1-yl)pyridine-3-carboxamide], the EC30 result is “++ (“++” means between 3 uM and 10 uM)”.

As for `CC1CN(c2nc(C(C)(C)C)ccc2C(=O)NS(=O)(=O)c2cccc(N)n2)C(C)(C)C1` (stereo not drawn) [Compound 1511], the EC30 result is on record as “+++ (“+++” means <3 uM)”.

`CC(Oc1nc(N2C[C@@H](C)CC2(C)C)c(C(=O)NS(=O)(=O)c2cccc(N)n2)cc1F)C1CCOCC1` (stereo partly drawn) [Compound 1891, N-[(6-amino-2-pyridyl)sulfonyl]-5-fluoro-6-(1-tetrahydropyran-4-ylethoxy)-2-[(4S)-2,2,4-trimethylpyrrolidin-1-yl]pyridine-3-carboxamide]: the EC30 entry was “+++ (“+++” means <3 uM)”.
